This note sets out measurements from patent US20240238423A9, “TETRAHYDROISOQUINOLINE HETEROBIFUNCTIONAL BCL-XL DEGRADERS” (Treeline Biosciences, Inc., priority 2022, published 2024).

This assay concerns the target T1, Human BCL-XL protein (N-terminal HiBiT tagged BCL-XL in HT1080 cells) (Homo sapiens, UniProt Q07817).
T1 construct: expressed in transfected cells; host or cells: HT-1080 (ATCC CCL-121), stably transduced with lentivirus pLV-UBC-N-HiBiT-BCL-XL-PGK-puro and selected with puromycin
As to the kind of experiment: HiBiT based degradation assay. The class given is cell-based. As to conditions: HT1080 cells expressing HiBiT-BCL-XL; for Ymin (6 h) / Ymin (24 h): BCL-XL degradation normalized with DMSO control; for DC50: BCL-XL degradation. An excerpt:
Human BCL-XL protein coding open reading frame fused with N-terminal HiBiT coding sequence was synthesized from Integrated DNA Technologies (IDT). Next, N-HiBiT-BCL-XL sequence was cloned into pLV-UBC-PGK-Puro, a lentivirus plasmid purchased from Vectorbuilder, to generate pLV-UBC-N-HiBiT-BCL-XL-PGK-puro. Lentiviral particles were generated from Lenti-X™ 293T cells (Clontech) by co-transfection of pLV-UBC-N-HiBiT-BCL-XL-PGK-puro plasmids and lentiviral packaging plasmid mix (Cellecta). HT-1080 [HT1080](ATCC CCL-121) cells were infected with the lentivirus, and HT1080 cells stably integrated with the lentiviral vectors were established by incubation with 1 μg/mL puromycin (Thermofisher).
HT1080 cells expressing N-terminal HiBiT tagged BCL-XL were dispensed into a 384-well plate pre-spotted with compounds at varying concentrations. Three thousand cells were seeded into each well in 40 μL of RPMI 1640 media. […] After incubation, luminescence was read on a PHERAstar FSX Plate Reader (BMG). BCL-XL degradation at each indicated concentration was normalized with the DMSO control. The BCL-XL degradation curves were plotted using a four-parameter logistic model. For compounds displaying hook effects, the curve fitting was performed using the bottom point of the hook curves (i.e., the point of Ymin) as the bottom plateau to calculate EC50.

Where two headings read alike, the source gives them in different places.

T1 sequence (Q07817 whole entry): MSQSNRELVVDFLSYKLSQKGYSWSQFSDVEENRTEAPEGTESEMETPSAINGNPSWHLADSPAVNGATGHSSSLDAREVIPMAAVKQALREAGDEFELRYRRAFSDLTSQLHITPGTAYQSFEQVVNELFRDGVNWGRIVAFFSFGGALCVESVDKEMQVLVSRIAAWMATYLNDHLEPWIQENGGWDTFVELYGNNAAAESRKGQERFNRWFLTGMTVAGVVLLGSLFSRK

Take `Cc1c(OCCN2C[C@@H](C)N(CC(=O)Nc3ccc4c(C5CCC(=O)NC5=O)nn(C)c4c3)[C@@H](C)C2)cccc1-c1ccc(N2CCc3cccc(C(=O)Nc4nc5ccccc5s4)c3C2)nc1C(=O)O` (stereo partly drawn) [Compound 159a, 6-(8-(benzo[d]thiazol-2-ylcarbamoyl)-3,4-dihydroisoquinolin-2(1H)-yl)-3-(3-(2-((3R,5S)-4-(2-((3-(2,6-dioxopiperidin-3-yl)-1-methyl-1H-indazol-6-yl)amino)-2-oxoethyl)-3,5-dimethylpiperazin-1-yl)ethoxy)-2-methylphenyl)picolinic acid]: the “Ymin (6 h)” value (6 h) is “B (50% ≤ Ymin < 70%)”. Further, where the note is “6 h, read-out: EC50 (6 h)”, the DC50 was less than 100 nM.

On to `Cc1c(OCCCN2C[C@H]3CC[C@@H](C2)N3CC(=O)Nc2ccc3c(C4CCC(=O)NC4=O)nn(C)c3c2)cccc1-c1ccc(N2CCc3cccc(C(=O)Nc4nc5ccccc5s4)c3C2)nc1C(=O)O` (stereo partly drawn) [Compound 127, 6-(8-(benzo[d]thiazol-2-ylcarbamoyl)-3,4-dihydroisoquinolin-2(1H)-yl)-3-(3-(3-((1R,5S)-8-(2-((3-(2,6-dioxopiperidin-3-yl)-1-methyl-1H-indazol-6-yl)amino)-2-oxoethyl)-3,8-diazabicyclo[3.2.1]octan-3-yl)propoxy)-2-methylphenyl)picolinic acid], for which the “Ymin (6 h)” value (6 h) is given as “B (50% ≤ Ymin < 70%)”. In addition, the “Ymin (24 h)” value (24 h) is on record as “A (Ymin < 50%)”. Also, the DC50 runs as follows: (6 h, read-out: EC50 (6 h)) less than 100 nM; (24 h, read-out: EC50 (24 h)) less than 100 nM.

`Cc1c(OCCCCCCCCCN2CCN(c3cccc4c(C5CCC(=O)NC5=O)nn(C)c34)CC2)cccc1-c1ccc(N2CCc3cccc(C(=O)Nc4nc5ccccc5s4)c3C2)nc1C(=O)O` (stereo not shown) [Compound 237, 6-[8-(1,3-benzothiazol-2-ylcarbamoyl)-3,4-dihydro-1H-isoquinolin-2-yl]-3-[3-[9-[4-[3-(2,6-dioxo-3-piperidyl)-1-methyl-indazol-7-yl]piperazin-1-yl]nonoxy]-2-methyl-phenyl]pyridine-2-carboxylic acid]: the “Ymin (6 h)” value (6 h) is reported as “A (Ymin < 50%)”. For the same molecule, the DC50 (6 h, read-out: EC50 (6 h)) is less than 100 nM.

`Cc1c(O[C@H]2CC[C@H](CCC(C)(C)N3CCN(c4ccc5c(C6CCC(=O)NC6=O)nn(C)c5c4)CC3)CC2)cccc1-c1ccc(N2CCc3cccc(C(=O)Nc4nc5ccccc5s4)c3C2)nc1C(=O)O` (stereo partly shown) [Compound 340a, 6-(8-(benzo[d]thiazol-2-ylcarbamoyl)-3,4-dihydroisoquinolin-2(1H)-yl)-3-(3-(((1s,4r)-4-(3-(4-(3-(2,6-dioxopiperidin-3-yl)-1-methyl-1H-indazol-6-yl)piperazin-1-yl)-3-methylbutyl)cyclohexyl)oxy)-2-methylphenyl)picolinic acid]: the “Ymin (24 h)” value (24 h) is recorded as “A (Ymin < 50%)”. For the same molecule, for the setting “24 h, read-out: EC50 (24 h)”, the DC50 is less than 100 nM.

On to `Cc1c(OCCC[C@@H]2CCCN(CC(=O)Nc3cccc4c(C5CCC(=O)NC5=O)nn(C)c34)C2)cccc1-c1ccc(N2CCc3cccc(C(=O)Nc4nc5ccccc5s4)c3C2)nc1C(=O)O` (single isomer, unassigned) [Compound 210a], for which, where the note is “24 h”, the “Ymin (24 h)” value was “B (50% ≤ Ymin < 70%)”. The DC50 (24 h, read-out: EC50 (24 h)) is less than 100 nM.

Turning to `Cc1c(Oc2ccc(CC(F)(F)CN3CCN(c4ccc5c(C6CCC(=O)NC6=O)nn(C)c5c4)CC3)cc2)cccc1-c1ccc(N2CCc3cccc(C(=O)Nc4nc5ccccc5s4)c3C2)nc1C(=O)O` (stereo not shown) [Compound 234, 6-[8-(1,3-benzothiazol-2-ylcarbamoyl)-3,4-dihydro-1H-isoquinolin-2-yl]-3-[3-[4-[3-[4-[3-(2,6-dioxo-3-piperidyl)-1-methyl-indazol-6-yl]piperazin-1-yl]-2,2-difluoro-propyl]phenoxy]-2-methyl-phenyl]pyridine-2-carboxylic acid], the “Ymin (6 h)” value (6 h) was “C (Ymin ≥ 70%)”. Also, where the note is “24 h”, the “Ymin (24 h)” value is on record as “B (50% ≤ Ymin < 70%)”. Also, the DC50 reads like this: (6 h, read-out: EC50 (6 h)) 100 to 1000 nM; (24 h, read-out: EC50 (24 h)) less than 100 nM.

As to `Cc1c(OCCC[C@H]2CCCN(CC(=O)Nc3cccc4c(C5CCC(=O)NC5=O)nn(C)c34)C2)cccc1-c1ccc(N2CCc3cccc(C(=O)Nc4nc5ccccc5s4)c3C2)nc1C(=O)O` (single isomer, unassigned) [Compound 210b], the “Ymin (6 h)” value (6 h) was “C (Ymin ≥ 70%)”. Also, the “Ymin (24 h)” value (24 h) is reported as “C (Ymin ≥ 70%)”. In addition, the DC50 reads like this: (6 h, read-out: EC50 (6 h)) 1000 to 10000 nM; (24 h, read-out: EC50 (24 h)) less than 100 nM.

Take `Cc1c(O[C@H]2CC[C@H](CCCN3CCC(c4cccc5c(C6CCC(=O)NC6=O)nn(C)c45)C3)CC2)cccc1-c1ccc(N2CCc3cccc(C(=O)Nc4nc5ccccc5s4)c3C2)nc1C(=O)O` (single isomer, unassigned) [Compound 320a]: under “24 h”, the “Ymin (24 h)” value was “A (Ymin < 50%)”. The DC50 (24 h, read-out: EC50 (24 h)) was less than 100 nM.

Take `Cc1c(OCC2CC3(CCN(CCN4CCN(c5ccc6c(C7CCC(=O)NC7=O)nn(C)c6c5)CC4)CC3)C2)cccc1-c1ccc(N2CCc3cccc(C(=O)Nc4nc5ccccc5s4)c3C2)nc1C(=O)O` (stereo not shown) [Compound 225, 6-(8-(benzo[d]thiazol-2-ylcarbamoyl)-3,4-dihydroisoquinolin-2(1H)-yl)-3-(3-((7-(2-(4-(3-(2,6-dioxopiperidin-3-yl)-1-methyl-1H-indazol-6-yl)piperazin-1-yl)ethyl)-7-azaspiro[3.5]nonan-2-yl)methoxy)-2-methylphenyl)picolinic acid]: the “Ymin (24 h)” value (24 h) is recorded as “A (Ymin < 50%)”. For the same molecule, the DC50 (24 h, read-out: EC50 (24 h)) is less than 100 nM.

As to `Cn1nc(C2CCC(=O)NC2=O)c2ccc(NC(=O)CN3CCC(CCCOc4cccc(-c5ccc(N6CCc7cccc(C(=O)Nc8nc9ccccc9s8)c7C6)nc5C(=O)O)c4C(F)(F)F)CC3)cc21` (stereo not shown) [Compound 313, 6-[8-(1,3-benzothiazol-2-ylcarbamoyl)-3,4-dihydro-1H-isoquinolin-2-yl]-3-[3-[3-[1-[2-[[3-(2,6-dioxo-3-piperidyl)-1-methyl-indazol-6-yl]amino]-2-oxo-ethyl]-4-piperidyl]propoxy]-2-(trifluoromethyl)phenyl]pyridine-2-carboxylic acid], under “24 h”, the “Ymin (24 h)” value is “A (Ymin < 50%)”. The DC50 (24 h, read-out: EC50 (24 h)) is less than 100 nM.

As to `Cc1c(OCCCCC2CCN(CC(=O)Nc3cccc4c(C5CCC(=O)NC5=O)nn(C)c34)CC2)cccc1-c1ccc(N2CCc3cccc(C(=O)Nc4nc5ccccc5s4)c3C2)nc1C(=O)O` (stereo not shown) [Compound 213, 6-(8-(benzo[d]thiazol-2-ylcarbamoyl)-3,4-dihydroisoquinolin-2(1H)-yl)-3-(3-(4-(1-(2-((3-(2,6-dioxopiperidin-3-yl)-1-methyl-1H-indazol-7-yl)amino)-2-oxoethyl)piperidin-4-yl)butoxy)-2-methylphenyl)picolinic acid], under “6 h”, the “Ymin (6 h)” value is recorded as “C (Ymin ≥ 70%)”. Also, the “Ymin (24 h)” value (24 h) was “A (Ymin < 50%)”. The DC50 fell in the range of 1000 to 10000 nM (6 h, read-out: EC50 (6 h)) and 100 to 1000 nM (24 h, read-out: EC50 (24 h)).

In the case of `Cc1c(O[C@H]2CC[C@H](CCCCN3CC[C@@H](c4ccc5c(C6CCC(=O)NC6=O)nn(C)c5c4)C3)CC2)cccc1-c1ccc(N2CCc3cccc(C(=O)Nc4nc5ccccc5s4)c3C2)nc1C(=O)O` (single isomer, unassigned) [Compound 332b], the “Ymin (24 h)” value (24 h) is listed as “A (Ymin < 50%)”. The DC50 (24 h, read-out: EC50 (24 h)) is less than 100 nM.

Turning to `Cc1c(OCCC[C@H]2CCCN(CC(=O)Nc3ccc4c(C5CCC(=O)NC5=O)nn(C)c4c3)C2)cccc1-c1ccc(N2CCc3cccc(C(=O)Nc4nc5ccccc5s4)c3C2)nc1C(=O)O` (stereo partly drawn) [Compound 207b, 6-(8-(benzo[d]thiazol-2-ylcarbamoyl)-3,4-dihydroisoquinolin-2(1H)-yl)-3-(3-(3-((3R)-1-(2-((3-(2,6-dioxopiperidin-3-yl)-1-methyl-1H-indazol-6-yl)amino)-2-oxoethyl)piperidin-3-yl)propoxy)-2-methylphenyl)picolinic acid], the “Ymin (6 h)” value (6 h) was “B (50% ≤ Ymin < 70%)”. Besides, where the note is “24 h”, the “Ymin (24 h)” value is given as “A (Ymin < 50%)”. The DC50 was less than 100 nM (6 h, read-out: EC50 (6 h)) and less than 100 nM (24 h, read-out: EC50 (24 h)).

For `Cc1cc(OCCC[C@@H]2CCN(CC(=O)Nc3ccc4c(C5CCC(=O)NC5=O)nn(C)c4c3)[C@@H](C)C2)ccc1-c1ccc(N2CCc3cccc(C(=O)Nc4nc5ccccc5s4)c3C2)nc1C(=O)O` (stereo partly drawn) [Compound 344d, 6-(8-(benzo[d]thiazol-2-ylcarbamoyl)-3,4-dihydroisoquinolin-2(1H)-yl)-3-(4-(3-((2S,4R)-1-(2-((3-(2,6-dioxopiperidin-3-yl)-1-methyl-1H-indazol-6-yl)amino)-2-oxoethyl)-2-methylpiperidin-4-yl)propoxy)-2-methylphenyl)picolinic acid], the “Ymin (24 h)” value (24 h) is given as “A (Ymin < 50%)”. Under “24 h, read-out: EC50 (24 h)”, the DC50 is less than 100 nM.

In the case of `Cc1c(O[C@H]2CC[C@H](CCC(C)(C)N3CCN(c4cccc5c(C6CCC(=O)NC6=O)nn(C)c45)CC3)CC2)cccc1-c1ccc(N2CCc3cccc(C(=O)Nc4nc5ccccc5s4)c3C2)nc1C(=O)O` (stereo partly shown) [Compound 341a, 6-(8-(benzo[d]thiazol-2-ylcarbamoyl)-3,4-dihydroisoquinolin-2(1H)-yl)-3-(3-(((is, 4r)-4-(3-(4-(3-(2,6-dioxopiperidin-3-yl)-1-methyl-1H-indazol-7-yl)piperazin-1-yl)-3-methylbutyl)cyclohexyl)oxy)-2-methylphenyl)picolinic acid], the “Ymin (24 h)” value (24 h) is “A (Ymin < 50%)”. Besides, the DC50 (24 h, read-out: EC50 (24 h)) is less than 100 nM.
